Data on ten compounds can be found in ChEMBL document CHEMBL1131669, “Synthesis of dihydroxanthone derivatives and evaluation of their inhibitory activity against acetylcholinesterase: unique structural analogs of tacrine based on the BCD-ring of arisugacin” (Bioorg Med Chem Lett, 1999).

Assay [1] is described as follows: In vitro inhibitory activity against acetylcholinesterase.
Assay [2] addresses Cholinesterase (Homo sapiens, UniProt P06276). Briefly: In vitro inhibitory activity against Butyrylcholinesterase.

Cholinesterase, sequence (P06276 whole entry): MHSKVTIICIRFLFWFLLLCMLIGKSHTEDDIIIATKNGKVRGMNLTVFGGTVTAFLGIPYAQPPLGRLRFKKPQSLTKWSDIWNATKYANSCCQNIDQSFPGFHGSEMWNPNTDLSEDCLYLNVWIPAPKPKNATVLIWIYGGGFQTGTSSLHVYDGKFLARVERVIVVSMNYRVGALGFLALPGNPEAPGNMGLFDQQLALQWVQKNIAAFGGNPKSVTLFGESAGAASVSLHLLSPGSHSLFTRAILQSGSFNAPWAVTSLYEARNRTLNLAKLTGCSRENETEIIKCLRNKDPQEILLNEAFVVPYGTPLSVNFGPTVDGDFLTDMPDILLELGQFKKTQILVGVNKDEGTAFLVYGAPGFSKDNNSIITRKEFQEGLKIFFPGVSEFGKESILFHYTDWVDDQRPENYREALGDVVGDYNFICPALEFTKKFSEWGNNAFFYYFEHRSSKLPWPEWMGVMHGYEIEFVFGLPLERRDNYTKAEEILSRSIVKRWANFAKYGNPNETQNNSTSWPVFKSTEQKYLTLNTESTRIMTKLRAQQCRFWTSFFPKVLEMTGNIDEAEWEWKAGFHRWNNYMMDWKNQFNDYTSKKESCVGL

With `CO[C@@H]1C=CC[C@@H]2Oc3ccc(F)cc3C(=O)[C@@]21C#N`, the half-inhibitory concentration (IC50) in assay [1] was 280 nM; in assay [2], above 2000 nM.

As to `CO[C@@H]1C=CC[C@@H]2Oc3ccccc3C(=O)[C@@]21C#N`, the IC50 in assay [1] was 1120 nM; in assay [2], above 2000 nM.

Consider `CO[C@@H]1C=CC[C@@H]2Oc3ccc(Br)cc3C(=O)[C@@]21C#N`, for which the IC50 turned out to be 1420 nM in assay [1] and 730 nM in assay [2].

Regarding `COC1CC(=O)C[C@@H]2Oc3ccccc3C(=O)[C@]12C#N` (stereo not given in full), the 50% inhibitory concentration (IC50) is 320 nM in assay [1] and above 2000 nM in assay [2].

For the compound `COc1ccc2c(c1)C(=O)[C@]1(C#N)C(OC)C=CC[C@@H]1O2` (stereo not given in full), the IC50 in assay [1] turned out to be 620 nM; in assay [2], 1410 nM.

For `COC1=CC2CCC1C1Oc3ccccc3C(=O)[C@]21C#N` (stereo not given in full), the 50% inhibitory concentration (IC50) in assay [1] and in assay [2] was above 2000 nM throughout.

`N#C[C@]12C(=O)c3ccccc3OC1C1C=CC2CC1` (stereo not given in full): the values for the IC50 in assay [1] and in assay [2] were 580 nM and above 2000 nM, respectively.

In the case of `COC1C=C(O[Si](C)(C)C(C)(C)C)C[C@@H]2Oc3ccccc3C(=O)[C@]12C#N` (stereo not given in full), the 50% inhibitory concentration (IC50) is above 2000 nM in assay [1] and 350 nM in assay [2].

As for `CO[C@@H]1C=CC[C@@H]2Oc3ccc(Cl)cc3C(=O)[C@@]21C#N`, the IC50 in assay [1] was found to be 240 nM; in assay [2], 270 nM.

As to `COC1C=CC[C@@H]2Oc3ccc(C)cc3C(=O)[C@]12C#N` (stereo not given in full), the IC50 was 790 nM in assay [1] and above 2000 nM in assay [2].

The IC50 is the concentration needed to halve the response being measured. Read a low IC50 as higher potency.
